{
  "source": "paper PMC12275099",
  "about": "“VX-445 (elexacaftor) inhibits chloride secretion across human bronchial epithelial cells by directly blocking KCa3.1 channels” (PNAS Nexus, 2025)",
  "molecular_target": "KCa2.3 (Homo sapiens, UniProt Q9UGI6)",
  "sequence (Q9UGI6 whole entry)": "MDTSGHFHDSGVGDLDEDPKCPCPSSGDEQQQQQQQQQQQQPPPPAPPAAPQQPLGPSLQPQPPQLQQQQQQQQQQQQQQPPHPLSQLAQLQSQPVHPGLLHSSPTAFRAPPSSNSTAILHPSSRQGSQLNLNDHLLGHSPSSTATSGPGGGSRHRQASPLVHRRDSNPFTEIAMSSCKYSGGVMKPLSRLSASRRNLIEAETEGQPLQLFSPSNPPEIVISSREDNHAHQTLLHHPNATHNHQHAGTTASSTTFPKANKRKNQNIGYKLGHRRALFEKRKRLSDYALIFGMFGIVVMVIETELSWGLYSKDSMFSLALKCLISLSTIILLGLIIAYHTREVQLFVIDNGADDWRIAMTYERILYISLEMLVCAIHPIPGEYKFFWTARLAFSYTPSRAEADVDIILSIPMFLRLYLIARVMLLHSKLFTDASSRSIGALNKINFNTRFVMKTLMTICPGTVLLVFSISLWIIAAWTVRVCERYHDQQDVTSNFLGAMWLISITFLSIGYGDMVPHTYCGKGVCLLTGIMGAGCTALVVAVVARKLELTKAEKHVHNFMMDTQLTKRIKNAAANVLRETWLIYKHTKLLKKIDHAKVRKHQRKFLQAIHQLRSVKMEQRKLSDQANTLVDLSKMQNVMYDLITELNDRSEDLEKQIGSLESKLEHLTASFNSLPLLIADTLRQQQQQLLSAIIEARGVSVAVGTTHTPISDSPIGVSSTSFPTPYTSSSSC",
  "assay": "Excised inside-out patch-clamp on HEK cells expressing KCa2.3",
  "type": "biochemical",
  "details": "10 µM; 1 µM free Ca2+; n = 4; VX-659 added subsequent to VX-445; read-out: inhibition of KCa2.3 currents",
  "protocol": "As above, we performed excised patch-clamp recordings on HEK cells heterologously expressing KCa2.3 or KCa2.2, in order to assess the activity of C2 CFTR corrector compounds. […] In contrast, the subsequent addition of 10 µM VX-659 yielded an almost complete inhibition of KCa2.3 currents, averaging 91 ± 3% (n = 4).\nHEK cells stably expressing KCa3.1 (IK1, SK4), KCa2.3 (SK3), and KCa2.2 (SK2) were generated and cultured as previously described by us ([37], [66–71]).\nHEK cells expressing the channel of interest were plated onto poly-L-lysine-coated glass coverslips 1–2 days prior to patch-clamp analysis. Electrophysiological recordings in the excised, inside-out, and whole-cell patch-clamp configurations were performed as recently described ([14]). For excised patch-clamp recordings, the pipette solution contained (in mM): 140 K-gluconate, 5 KCl, 1 CaCl2, 1 MgCl2, and 10 HEPES. The pH was adjusted to 7.2 with KOH. The bath solution contained (in mM): 145 K-gluconate, 5 KCl, 1.3 MgCl2, 10 HEPES, and 1 EGTA. Sufficient CaCl2 was added to obtain the desired free Ca^2+ concentration at a pH of 7.2 (adjusted with KOH). When recording KCa3.1 channels, ATP (300 µM) was added to the bath to diminish channel rundown ([73]). All recordings were carried out at a voltage of −100 mV, referenced to the extracellular compartment, as is standard. The apparent Ki and Hill coefficient for each CFTR corrector on KCa3.1, KCa2.3, and KCa2.2 were determined during a continuous recording by step-wise addition of increasing concentrations of compound and fitting the resultant relative remaining current to a Hill equation (Prism v. 10.1.0). The zero current level was determined by the addition of a 0 Ca^2+ solution (zero-added Ca^2+ plus 1 mM EGTA) at the end of the experiment. […] Current–voltage relationships were determined by stepping from a holding potential of −80 mV to +80 mV in 20 mV increments for 400 ms. The middle 300 ms of each trace was selected to avoid any influence of capacitive transients, and average currents were calculated for each voltage via the I–V tool in Clampfit. […]",
  "data": [
    {"smiles": "Cc1nn(C)cc1S(=O)(=O)NC(=O)c1ccc(-n2ccc(OCC(C)(C)C(F)(F)F)n2)nc1N1C[C@@H](C)CC1(C)C", "note": "[VX-445, elexacaftor]", "values": [
      {"measurement": "inhibition at 10 µM", "value": "15 ± 5", "unit": "%"}
    ]}
  ]
}
